Source: US11654199B2 (BOLT BIOTHERAPEUTICS, INC., priority 2019, dated 2023)

What was measured:
[1] = target: T1, human TLR7 (Homo sapiens, UniProt Q9NYK1); assay: HEK293 NFKB reporter assay, human TLR7; assay type: cell-based; conditions: HEK293 NFKB reporter cells expressing human TLR7; read-out: HEK293 hTLR7 EC50
T1 construct: host or cells: HEK293 reporter cells
T1 sequence (Q9NYK1 27-1049): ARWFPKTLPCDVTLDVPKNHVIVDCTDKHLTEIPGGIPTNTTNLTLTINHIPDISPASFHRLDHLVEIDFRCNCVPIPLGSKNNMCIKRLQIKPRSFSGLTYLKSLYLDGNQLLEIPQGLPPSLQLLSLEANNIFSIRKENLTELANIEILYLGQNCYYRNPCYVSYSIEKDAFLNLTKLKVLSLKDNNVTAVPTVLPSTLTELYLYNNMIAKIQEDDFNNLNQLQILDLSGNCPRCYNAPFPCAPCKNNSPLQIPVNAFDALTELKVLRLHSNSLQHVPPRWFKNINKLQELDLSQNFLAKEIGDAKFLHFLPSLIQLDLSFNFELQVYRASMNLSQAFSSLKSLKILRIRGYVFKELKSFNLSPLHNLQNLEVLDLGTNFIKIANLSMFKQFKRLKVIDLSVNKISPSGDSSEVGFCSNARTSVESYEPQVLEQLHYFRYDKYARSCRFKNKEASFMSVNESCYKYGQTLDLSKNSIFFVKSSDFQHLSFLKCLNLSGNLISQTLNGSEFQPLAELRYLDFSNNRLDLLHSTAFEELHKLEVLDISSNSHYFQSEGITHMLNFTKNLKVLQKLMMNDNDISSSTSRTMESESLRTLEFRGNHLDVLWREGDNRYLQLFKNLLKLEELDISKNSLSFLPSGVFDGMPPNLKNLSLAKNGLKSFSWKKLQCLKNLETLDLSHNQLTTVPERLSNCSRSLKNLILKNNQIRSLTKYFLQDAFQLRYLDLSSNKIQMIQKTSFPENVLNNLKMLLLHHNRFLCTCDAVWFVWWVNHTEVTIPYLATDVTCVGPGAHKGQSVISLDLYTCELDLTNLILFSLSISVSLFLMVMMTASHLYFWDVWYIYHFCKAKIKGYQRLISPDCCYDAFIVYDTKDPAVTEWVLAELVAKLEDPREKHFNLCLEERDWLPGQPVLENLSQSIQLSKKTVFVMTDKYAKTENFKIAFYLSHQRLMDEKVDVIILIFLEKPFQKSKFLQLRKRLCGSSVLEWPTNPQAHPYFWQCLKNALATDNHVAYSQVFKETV
Experimental: (§1) Each compound was synthesized, purified, and characterized by mass spectrometry and shown to have the mass indicated. Additional experimental procedures are found in the Examples. Activity against HEK293 NFKB reporter cells expressing human TLR7 or human TLR8 was measured according to Example 202.
(§2) HEK293 reporter cells expressing human TLR7 or human TLR8 were purchased from Invivogen and vendor protocols were followed for cellular propagation and experimentation. Briefly, cells were grown to 80-85% confluence at 5% CO2 in DMEM supplemented with 10% FBS, Zeocin, and Blasticidin. Cells were then seeded in 96-well flat plates at 4×10^4 cells/well with substrate containing HEK detection medium and immunostimulatory molecules. Activity was measured using a plate reader at 620-655 nm wavelength.

[2] = target: T2, human TLR8 (Homo sapiens, UniProt Q9NR97); assay: HEK293 NFKB reporter assay, human TLR8; assay type: cell-based; conditions: HEK293 NFKB reporter cells expressing human TLR8; read-out: HEK293 hTLR8 EC50
T2 construct: host or cells: HEK293 reporter cells
T2 sequence (Q9NR97 27-1041): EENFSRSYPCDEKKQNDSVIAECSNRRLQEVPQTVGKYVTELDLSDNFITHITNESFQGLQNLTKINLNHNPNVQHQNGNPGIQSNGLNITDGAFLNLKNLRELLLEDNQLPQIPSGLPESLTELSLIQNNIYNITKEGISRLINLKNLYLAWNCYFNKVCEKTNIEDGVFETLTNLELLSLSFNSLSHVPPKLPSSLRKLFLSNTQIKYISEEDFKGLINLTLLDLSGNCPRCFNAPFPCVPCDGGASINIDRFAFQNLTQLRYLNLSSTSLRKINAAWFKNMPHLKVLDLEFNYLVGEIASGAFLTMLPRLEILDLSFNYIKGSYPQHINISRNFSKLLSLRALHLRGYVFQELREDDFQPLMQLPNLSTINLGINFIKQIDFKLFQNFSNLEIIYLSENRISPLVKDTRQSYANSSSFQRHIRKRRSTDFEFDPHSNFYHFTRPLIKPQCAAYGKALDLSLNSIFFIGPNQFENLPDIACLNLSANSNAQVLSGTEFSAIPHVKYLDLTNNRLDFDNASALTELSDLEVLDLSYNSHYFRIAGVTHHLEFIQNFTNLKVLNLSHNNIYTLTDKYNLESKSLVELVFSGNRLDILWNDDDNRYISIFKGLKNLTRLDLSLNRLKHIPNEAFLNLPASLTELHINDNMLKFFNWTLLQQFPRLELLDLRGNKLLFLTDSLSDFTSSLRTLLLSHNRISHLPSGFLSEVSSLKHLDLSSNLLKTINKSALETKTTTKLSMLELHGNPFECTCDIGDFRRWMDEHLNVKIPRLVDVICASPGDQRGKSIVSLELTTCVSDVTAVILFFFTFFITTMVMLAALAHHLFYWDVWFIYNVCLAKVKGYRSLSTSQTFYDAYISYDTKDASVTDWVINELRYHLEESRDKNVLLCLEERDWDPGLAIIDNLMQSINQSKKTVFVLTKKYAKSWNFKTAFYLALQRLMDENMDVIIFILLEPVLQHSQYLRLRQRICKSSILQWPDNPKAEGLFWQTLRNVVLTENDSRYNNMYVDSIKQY
Experimental: as §1, §2

EC50 [1] [µM] | EC50 [2] [µM] | Structure (SMILES)
> 9 | 1.78 | CCCN(Cc1ccc(CNC(C)=O)cc1)C(=O)C1=Cc2sccc2N=C(N)C1 [TAZ-45]
3.56 | 0.485 | CCCN(OCC)C(=O)C1=Cc2sc(CC3CNC3)cc2N=C(N)C1 [TAZ-183, 5-amino-2-(azetidin-3-ylmethyl)-N-ethoxy-N-propyl-6H-thieno[3,2-b]azepine-7-carboxamide]
0.153 | 3.7 | CCCN(CCCNC(=O)OC1CCC1)C(=O)C1=Cc2sc(-c3cn[nH]c3)cc2N=C(N)C1 [TAZ-172]
> 9 | > 9 | CCCN(CCC)C(=O)C1=Cc2sc(S(=O)(=O)NCCCNC(=O)OC(C)(C)C)cc2N=C(N)C1 [TAZ-55]
6.2 | 0.101 | CCCN(OCC)C(=O)C1=Cc2sc(CN3CCNCC3)cc2N=C(N)C1 [TAZ-94]
4.53 | 0.593 | CCCN(CCC)C(=O)C1=Cc2sc(CN3CCNCC3)cc2N=C(N)C1 [TAZ-44]
4.18 | 0.474 | CCCN(OCC)C(=O)C1=Cc2sc(CCC3CCN(C(=O)OC(C)(C)C)CC3)cc2N=C(N)C1 [TAZ-175]
2.56 | 1.21 | CCCN(OCC)C(=O)C1=Cc2sc(CN3CCCNCC3)cc2N=C(N)C1 [TAZ-225]
0.915 | 0.249 | CCCN(OCC)C(=O)C1=Cc2sc(CCC3CCNCC3)cc2N=C(N)C1 [TAZ-176, 5-amino-N-ethoxy-2-[2-(4-piperidyl)ethyl]-N-propyl-6H-thieno[3,2-b]azepine-7-carboxamide]
2.22 | 0.423 | CCCN(OCC)C(=O)C1=Cc2sc(CC3CCNC3)cc2N=C(N)C1 (stereo not drawn) [TAZ-236]
0.714 | 0.124 | CCCN(OCC)C(=O)C1=Cc2sc(CC3CCNCC3)cc2N=C(N)C1 [TAZ-178]
0.362 | 0.64 | CCCN(OC(C)C)C(=O)C1=Cc2sc(CC3CN(C(=O)OC(C)(C)C)C3)cc2N=C(N)C1 [TAZ-249]
3.33 | 0.361 | CCCN(OCC)C(=O)C1=Cc2sc(CN3CCC(N)C3)cc2N=C(N)C1 (stereo not drawn) [TAZ-234]
0.922 | 0.93 | CCCN(OCC)C(=O)C1=Cc2sc(CC3CN(C(=O)OC(C)(C)C)C3)cc2N=C(N)C1 [TAZ-184]
> 9 | 3.62 | CCCN(CCC)C(=O)C1=Cc2sc(CO)cc2N=C(N)C1 [TAZ-99]
3.85 | 3.47 | CCCN(CCC)C(=O)C1=Cc2sc(CCCCCNC(=O)CCOC)cc2N=C(N)C1 [TAZ-108]
4.89 | 2.83 | CCCN(OCC)C(=O)C1=Cc2sc(CN3CCC(C(=O)OC)CC3)cc2N=C(N)C1 [TAZ-222]
4.73 | > 9 | CCCN(CCc1ccc(OC)cc1)C(=O)C1=Cc2sc(CCCCCNC(=O)OC(C)(C)C)cc2N=C(N)C1 [TAZ-106]
5.08 | 2.03 | CCCN(OCC)C(=O)C1=Cc2sc(CCCCCNC(=O)OC(C)(C)C)cc2N=C(N)C1 [TAZ-75]
0.905 | 0.035 | CCCN(Cc1ccc(CN)c(C(F)(F)F)c1)C(=O)C1=Cc2sccc2N=C(N)C1
0.824 | 3.48 | CCCN(CCCNC(=O)OC1CCC1)C(=O)C1=Cc2sc(C#CC3CNC3)cc2N=C(N)C1 [TAZ-192]

EC50 [1] [µM] | EC50 [2] [µM] | Structure (SMILES)
> 9 | > 9 | CCCN(CCC)C(=O)C1=Cc2sc(CN3CCN(C(=O)OC(C)(C)C)CC3)cc2N=C(N)C1 [TAZ-43]
3.82 | 1.38 | CCCN(OCC(F)(F)F)C(=O)C1=Cc2sccc2N=C(N)C1 [TAZ-103]
> 9 | 1.58 | CCCN(Cc1ccc(CNC(=O)CCOC)cc1)C(=O)C1=Cc2sccc2N=C(N)C1 [TAZ-46]
> 9 | > 9 | CCCN(Cc1ccccc1)C(=O)C1=Cc2sccc2N=C(N)C1 [TAZ-39]
5.72 | 3.39 | CCCN(CCCNC(=O)OC1CCC1)C(=O)C1=Cc2sc(CN3Cc4ccc(NC(=O)CCN)cc4C3)cc2N=C(N)C1 [TAZ-189]
8.52 | > 9 | CCCN(CCC)C(=O)C1=Cc2sc(CCCCNC(=O)OC(C)(C)C)cc2N=C(N)C1 [TAZ-36]
> 9 | > 9 | CCCN(CCC)C(=O)C1=Cc2sc(C#CCCCN)cc2N=C(N)C1 [TAZ-33]
> 9 | > 9 | CCCN(CCC)C(=O)C1=Cc2sc(C#CCCCNC(=O)OC(C)(C)C)cc2N=C(N)C1 [TAZ-6, tert-butyl N-[5-[5-amino-7-(dipropylcarbamoyl)-6H-thieno[3,2-b]azepin-2-yl]pent-4-ynyl] carbamate]
3.15 | 2.83 | CCCN(OCC)C(=O)C1=Cc2sc(C#CCCCNC(=O)OC(C)(C)C)cc2N=C(N)C1 [TAZ-72]
0.95 | 0.633 | CCCN(CC1CCC1)C(=O)C1=Cc2sc(CCCCCN)cc2N=C(N)C1 [TAZ-126]
5.06 | 2.74 | CCCN(CCC(F)(F)F)C(=O)C1=Cc2sccc2N=C(N)C1 [TAZ-64]
> 9 | > 9 | CCCN(CCC)C(=O)C1=Cc2sc(S(=O)(=O)NCCCN)cc2N=C(N)C1 [TAZ-56]
> 9 | > 9 | CCCN(CCC)C(=O)C1=Cc2sc(C(=O)NCCCNC(=O)OC(C)(C)C)cc2N=C(N)C1 [TAZ-31]
1.24 | 1.25 | CCCN(CCCNC(=O)OCc1ccccc1)C(=O)C1=Cc2sc(CCCCCNC(=O)OC(C)(C)C)cc2N=C(N)C1 [TAZ-162]
1.05 | 3.85 | CCCN(Cc1cnc(CNC(=O)OC(C)(C)C)cn1)C(=O)C1=Cc2sccc2N=C(N)C1 [TAZ-57]
2.92 | 4.07 | CCCN(OCC)C(=O)C1=Cc2sc(CCC3(O)CNC3)cc2N=C(N)C1 [TAZ-200]
5.94 | 4.01 | CCCN(Cc1ccc(CN(C)C)c(C(F)(F)F)n1)C(=O)C1=Cc2sc(CCCCCN)cc2N=C(N)C1 [TAZ-145]
3.62 | 0.181 | CCCN(OCC)C(=O)C1=Cc2sccc2N=C(N)C1 [TAZ-53]
0.882 | 3.4 | CCCN(CCCNC(=O)OC1CCC1)C(=O)C1=Cc2sc(CC3CCN(C(=O)OC(C)(C)C)CC3)cc2N=C(N)C1 [TAZ-177]
> 9 | > 9 | CCCN(CC12CC(CNC(=O)OC(C)(C)C)(C1)C2)C(=O)C1=Cc2sccc2N=C(N)C1 [TAZ-40]

Structure (SMILES) | EC50 [1] [µM] | EC50 [2] [µM]
CCCN(OCC)C(=O)C1=Cc2sc(CN3CC4CCC(C3)N4)cc2N=C(N)C1 [TAZ-245] | 5.02 | 0.145
